# Measured values published in PubChem BioAssay (NCI).
#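 Grown in 96-well plates, cells were treated for 48 hours with each compound at five concentrations. Insufficient inhibition: endpoint recorded as highest concentration tested. GI50: concentration for 50% inhibition of growth. TGI is the concentration that stops growth completely.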
# Legend:
# Test in all cases: NCI tumour cell line growth inhibition, 48 h
# 786-0 renal = tested on: 786-0 renal
# A498 renal = tested on: A498 renal
# A549 NSCLC = tested on: A549 NSCLC
# ACHN renal = tested on: ACHN renal
# BT-549 breast = tested on: BT-549 breast
# CAKI-1 renal = tested on: CAKI-1 renal
# CCRF-CEM leukemia = tested on: CCRF-CEM leukemia
# COLO 205 colon = tested on: COLO 205 colon
# DU-145 prostate = tested on: DU-145 prostate
# EKVX NSCLC = tested on: EKVX NSCLC
# HCC-2998 colon = tested on: HCC-2998 colon
# HCT-116 colon = tested on: HCT-116 colon
# HCT-15 colon = tested on: HCT-15 colon
# HL-60(TB) leukemia = tested on: HL-60(TB) leukemia
# HOP-62 NSCLC = tested on: HOP-62 NSCLC
# HOP-92 NSCLC = tested on: HOP-92 NSCLC
# HS 578T breast = tested on: HS 578T breast
# HT29 colon = tested on: HT29 colon
# IGROV1 ovarian = tested on: IGROV1 ovarian
# K-562 leukemia = tested on: K-562 leukemia
# KM12 colon = tested on: KM12 colon
# LOX IMVI melanoma = tested on: LOX IMVI melanoma
# M14 melanoma = tested on: M14 melanoma
# MALME-3M melanoma = tested on: MALME-3M melanoma
# MCF7 breast = tested on: MCF7 breast
# MDA-MB-231 breast = tested on: MDA-MB-231 breast
# MDA-MB-435 = tested on: MDA-MB-435
# MOLT-4 leukemia = tested on: MOLT-4 leukemia
# NCI-H226 lung = tested on: NCI-H226 lung
smiles,measurement,setting,value
FC(F)(F)CNc1nccc(-c2cnn3ncccc23)n1,GI50,786-0 renal,9.67 µM
same,TGI,786-0 renal,> 25 µM
same,GI50,A498 renal,3.85 µM
same,TGI,A498 renal,> 22.6 µM
same,GI50,A549 NSCLC,10.3 µM
same,TGI,A549 NSCLC,> 25 µM
same,GI50,ACHN renal,6.41 µM
same,TGI,ACHN renal,> 25 µM
same,GI50,BT-549 breast,> 14.1 µM
same,TGI,BT-549 breast,> 25 µM
same,GI50,CAKI-1 renal,15.9 µM
same,TGI,CAKI-1 renal,> 25 µM
same,GI50,CCRF-CEM leukemia,> 18.9 µM
same,TGI,CCRF-CEM leukemia,> 25 µM
same,GI50,COLO 205 colon,8.58 µM
same,TGI,COLO 205 colon,> 25 µM
same,GI50,DU-145 prostate,12 µM
same,TGI,DU-145 prostate,> 25 µM
same,GI50,EKVX NSCLC,15.1 µM
same,TGI,EKVX NSCLC,> 25 µM
same,GI50,HCC-2998 colon,> 25 µM
same,TGI,HCC-2998 colon,> 25 µM
same,GI50,HCT-116 colon,8.3 µM
same,TGI,HCT-116 colon,> 25 µM
same,GI50,HCT-15 colon,16.1 µM
same,TGI,HCT-15 colon,> 25 µM
same,GI50,HL-60(TB) leukemia,8.35 µM
same,TGI,HL-60(TB) leukemia,> 19.9 µM
same,GI50,HOP-62 NSCLC,> 13.6 µM
same,TGI,HOP-62 NSCLC,> 25 µM
same,GI50,HOP-92 NSCLC,6.13 µM
same,TGI,HOP-92 NSCLC,> 25 µM
same,GI50,HS 578T breast,8.14 µM
same,TGI,HS 578T breast,> 25 µM
same,GI50,HT29 colon,16.3 µM
same,TGI,HT29 colon,> 25 µM
same,GI50,IGROV1 ovarian,11.9 µM
same,TGI,IGROV1 ovarian,> 25 µM
same,GI50,K-562 leukemia,> 25 µM
same,TGI,K-562 leukemia,> 25 µM
same,GI50,KM12 colon,9.54 µM
same,TGI,KM12 colon,> 25 µM
same,GI50,LOX IMVI melanoma,10.7 µM
same,TGI,LOX IMVI melanoma,> 25 µM
same,GI50,M14 melanoma,11.5 µM
same,TGI,M14 melanoma,> 25 µM
same,GI50,MALME-3M melanoma,> 25 µM
same,TGI,MALME-3M melanoma,> 25 µM
same,GI50,MCF7 breast,7.3 µM
same,TGI,MCF7 breast,> 25 µM
same,GI50,MDA-MB-231 breast,> 25 µM
same,TGI,MDA-MB-231 breast,> 25 µM
same,GI50,MDA-MB-435,13.7 µM
same,TGI,MDA-MB-435,> 25 µM
same,GI50,MOLT-4 leukemia,> 25 µM
same,TGI,MOLT-4 leukemia,> 25 µM
same,GI50,NCI-H226 lung,12.6 µM
same,TGI,NCI-H226 lung,> 25 µM
